Measurements from paper PMC11062906 (Nature, 2024).
Several values for one entry are separate records, joined by “and”; a condition that tells them apart may be missing. Equal values may be shown once. Entries after “also recorded” stand apart in the source; their conditions may differ.

What was measured:
BmGr9 T330S = BmGr9 T330S (Bombyx mori, UniProt B3GTD7, T330S); assay: GCaMP calcium flux assay, BmGr9 T330S; type: cell-based
BmGr9 P331A = BmGr9 P331A (Bombyx mori, UniProt B3GTD7, P331A); assay: GCaMP calcium flux assay, BmGr9 P331A; type: cell-based
Sequence of BmGr9 P331A (B3GTD7 entry or part of it P331A): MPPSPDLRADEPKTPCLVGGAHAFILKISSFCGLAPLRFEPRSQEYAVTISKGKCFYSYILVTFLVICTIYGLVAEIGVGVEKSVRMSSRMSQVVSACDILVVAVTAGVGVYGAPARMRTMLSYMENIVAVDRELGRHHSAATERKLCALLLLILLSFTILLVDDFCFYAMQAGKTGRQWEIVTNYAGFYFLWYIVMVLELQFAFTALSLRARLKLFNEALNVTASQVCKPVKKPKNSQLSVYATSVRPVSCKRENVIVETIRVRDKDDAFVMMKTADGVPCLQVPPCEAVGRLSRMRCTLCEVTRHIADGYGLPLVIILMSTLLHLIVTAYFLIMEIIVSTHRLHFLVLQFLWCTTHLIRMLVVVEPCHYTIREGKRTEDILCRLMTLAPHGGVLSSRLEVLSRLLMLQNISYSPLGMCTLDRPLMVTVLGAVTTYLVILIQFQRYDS

BmGr9 Q443N = assay: GCaMP calcium flux assay, BmGr9 Q443N; type: cell-based, Bombyx mori
BmGr9 F333Y = assay: GCaMP calcium flux assay, BmGr9 F333Y; type: cell-based, Bombyx mori
BmGr9 Q443E = BmGr9 Q443E (Bombyx mori, UniProt B3GTD7, Q443E); assay: GCaMP calcium flux assay, BmGr9 Q443E; type: cell-based
Sequence of BmGr9 Q443E (B3GTD7 entry or part of it Q443E): as the sequence (B3GTD7 entry or part of it P331A) above, with A331P, Q443E counted along it

BmGr9 Q445R = assay: GCaMP calcium flux assay, BmGr9 Q445R; type: cell-based, Bombyx mori
BmGr9 H358Q = assay: GCaMP calcium flux assay, BmGr9 H358Q; type: cell-based, Bombyx mori
BmGr9 F189Y = BmGr9 F189Y (Bombyx mori, UniProt B3GTD7, F189Y); assay: GCaMP calcium flux assay, BmGr9 F189Y; type: cell-based
Sequence of BmGr9 F189Y (B3GTD7 entry or part of it F189Y): as the sequence (B3GTD7 entry or part of it P331A) above, with F189Y, A331P counted along it

BmGr9 Q443E_Q445K = BmGr9 Q443E_Q445K (Bombyx mori, UniProt B3GTD7, Q443E/Q445K); assay: GCaMP calcium flux assay, BmGr9 Q443E_Q445K; type: cell-based
Sequence of BmGr9 Q443E_Q445K (B3GTD7 entry or part of it Q443E/Q445K): as the sequence (B3GTD7 entry or part of it P331A) above, with A331P, Q443E, Q445K counted along it

BmGr9 F333L = assay: GCaMP calcium flux assay, BmGr9 F333L; type: cell-based, Bombyx mori
BmGr9 [1] = molecular target: T1, BmGr9 (Bombyx mori, UniProt B3GTD7); assay: Cell-based GCaMP calcium flux assay, wild-type BmGr9
T1 sequence (B3GTD7 entry or part of it): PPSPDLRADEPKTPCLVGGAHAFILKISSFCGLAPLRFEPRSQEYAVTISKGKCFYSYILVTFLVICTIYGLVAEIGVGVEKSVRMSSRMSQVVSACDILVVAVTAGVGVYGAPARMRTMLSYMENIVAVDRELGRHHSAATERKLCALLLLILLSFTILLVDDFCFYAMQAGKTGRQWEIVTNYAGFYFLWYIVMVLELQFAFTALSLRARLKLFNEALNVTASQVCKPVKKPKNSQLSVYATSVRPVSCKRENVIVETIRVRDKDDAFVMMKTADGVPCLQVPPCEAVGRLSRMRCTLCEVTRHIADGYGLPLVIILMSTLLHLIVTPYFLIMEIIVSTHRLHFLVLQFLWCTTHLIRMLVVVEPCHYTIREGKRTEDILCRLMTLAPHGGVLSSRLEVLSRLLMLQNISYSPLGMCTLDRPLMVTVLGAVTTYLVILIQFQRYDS

BmGr9 R86A = assay: GCaMP calcium flux assay, BmGr9 R86A; type: cell-based, Bombyx mori
BmGr9 Q351N = BmGr9 Q351N (Bombyx mori, UniProt B3GTD7, Q351N); assay: GCaMP calcium flux assay, BmGr9 Q351N; type: cell-based
Sequence of BmGr9 Q351N (B3GTD7 entry or part of it Q351N): as the sequence (B3GTD7 entry or part of it P331A) above, with A331P, Q351N counted along it

BmGr9 Y332F = BmGr9 Y332F (Bombyx mori, UniProt B3GTD7, Y332F); assay: GCaMP calcium flux assay, BmGr9 Y332F; type: cell-based
Sequence of BmGr9 Y332F (B3GTD7 entry or part of it Y332F): as the sequence (B3GTD7 entry or part of it P331A) above, with A331P, Y332F counted along it

BmGr9 Q443A = assay: GCaMP calcium flux assay, BmGr9 Q443A; type: cell-based, Bombyx mori
BmGr9 H358A = BmGr9 H358A (Bombyx mori, UniProt B3GTD7, H358A); assay: GCaMP calcium flux assay, BmGr9 H358A; type: cell-based
Sequence of BmGr9 H358A (B3GTD7 entry or part of it H358A): as the sequence (B3GTD7 entry or part of it P331A) above, with A331P, H358A counted along it

BmGr9 W193F = assay: GCaMP calcium flux assay, BmGr9 W193F; type: cell-based, Bombyx mori
BmGr9 Q443D_Q445R = BmGr9 Q443D_Q445R (Bombyx mori, UniProt B3GTD7, Q443D/Q445R); assay: GCaMP calcium flux assay, BmGr9 Q443D_Q445R; type: cell-based; conditions: 95% CI in parentheses
Sequence of BmGr9 Q443D_Q445R (B3GTD7 entry or part of it Q443D/Q445R): as the sequence (B3GTD7 entry or part of it P331A) above, with A331P, Q443D, Q445R counted along it

BmGr9 D99A = assay: GCaMP calcium flux assay, BmGr9 D99A; type: cell-based, Bombyx mori
BmGr9 I440A = assay: GCaMP calcium flux assay, BmGr9 I440A; type: cell-based, Bombyx mori
BmGr9 D165N = assay: GCaMP calcium flux assay, BmGr9 D165N; type: cell-based, Bombyx mori
BmGr9 Y332Q = assay: GCaMP calcium flux assay, BmGr9 Y332Q; type: cell-based, Bombyx mori
BmGr9 Y332L = assay: GCaMP calcium flux assay, BmGr9 Y332L; type: cell-based, Bombyx mori
BmGr9 T330V = BmGr9 T330V (Bombyx mori, UniProt B3GTD7, T330V); assay: GCaMP calcium flux assay, BmGr9 T330V; type: cell-based
Sequence of BmGr9 T330V (B3GTD7 entry or part of it T330V): as the sequence (B3GTD7 entry or part of it P331A) above, with T330V, A331P counted along it

BmGr9 D165E = assay: GCaMP calcium flux assay, BmGr9 D165E; type: cell-based, Bombyx mori
BmGr9 Q445N = BmGr9 Q445N (Bombyx mori, UniProt B3GTD7, Q445N); assay: GCaMP calcium flux assay, BmGr9 Q445N; type: cell-based
Sequence of BmGr9 Q445N (B3GTD7 entry or part of it Q445N): as the sequence (B3GTD7 entry or part of it P331A) above, with A331P, Q445N counted along it

BmGr9 Q443D_Q445K = BmGr9 Q443D_Q445K (Bombyx mori, UniProt B3GTD7, Q443D/Q445K); assay: GCaMP calcium flux assay, BmGr9 Q443D_Q445K; type: cell-based
Sequence of BmGr9 Q443D_Q445K (B3GTD7 entry or part of it Q443D/Q445K): as the sequence (B3GTD7 entry or part of it P331A) above, with A331P, Q443D, Q445K counted along it

BmGr9 R86K = BmGr9 R86K (Bombyx mori, UniProt B3GTD7, R86K); assay: GCaMP calcium flux assay, BmGr9 R86K; type: cell-based
Sequence of BmGr9 R86K (B3GTD7 entry or part of it R86K): as the sequence (B3GTD7 entry or part of it P331A) above, with R86K, A331P counted along it

BmGr9 Q443D = BmGr9 Q443D (Bombyx mori, UniProt B3GTD7, Q443D); assay: GCaMP calcium flux assay, BmGr9 Q443D; type: cell-based
Sequence of BmGr9 Q443D (B3GTD7 entry or part of it Q443D): as the sequence (B3GTD7 entry or part of it P331A) above, with A331P, Q443D counted along it

BmGr9 Q351A = BmGr9 Q351A (Bombyx mori, UniProt B3GTD7, Q351A); assay: GCaMP calcium flux assay, BmGr9 Q351A; type: cell-based
Sequence of BmGr9 Q351A (B3GTD7 entry or part of it Q351A): as the sequence (B3GTD7 entry or part of it P331A) above, with A331P, Q351A counted along it

BmGr9 Y332A = BmGr9 Y332A (Bombyx mori, UniProt B3GTD7, Y332A); assay: GCaMP calcium flux assay, BmGr9 Y332A; type: cell-based
Sequence of BmGr9 Y332A (B3GTD7 entry or part of it Y332A): as the sequence (B3GTD7 entry or part of it P331A) above, with A331P, Y332A counted along it

BmGr9 Q351E = assay: GCaMP calcium flux assay, BmGr9 Q351E; type: cell-based, Bombyx mori
BmGr9 D165A = assay: GCaMP calcium flux assay, BmGr9 D165A; type: cell-based, Bombyx mori
BmGr9 Y190F = BmGr9 Y190F (Bombyx mori, UniProt B3GTD7, Y190F); assay: GCaMP calcium flux assay, BmGr9 Y190F; type: cell-based; conditions: 95% CI in parentheses
Sequence of BmGr9 Y190F (B3GTD7 entry or part of it Y190F): as the sequence (B3GTD7 entry or part of it P331A) above, with Y190F, A331P counted along it

BmGr9 F333A = assay: GCaMP calcium flux assay, BmGr9 F333A; type: cell-based, Bombyx mori
BmGr9 Q445E = BmGr9 Q445E (Bombyx mori, UniProt B3GTD7, Q445E); assay: GCaMP calcium flux assay, BmGr9 Q445E; type: cell-based
Sequence of BmGr9 Q445E (B3GTD7 entry or part of it Q445E): as the sequence (B3GTD7 entry or part of it P331A) above, with A331P, Q445E counted along it

BmGr9 Q445A = BmGr9 Q445A (Bombyx mori, UniProt B3GTD7, Q445A); assay: GCaMP calcium flux assay, BmGr9 Q445A; type: cell-based
Sequence of BmGr9 Q445A (B3GTD7 entry or part of it Q445A): as the sequence (B3GTD7 entry or part of it P331A) above, with A331P, Q445A counted along it

BmGr9 Q443E_Q445R = BmGr9 Q443E_Q445R (Bombyx mori, UniProt B3GTD7, Q443E/Q445R); assay: GCaMP calcium flux assay, BmGr9 Q443E_Q445R; type: cell-based
Sequence of BmGr9 Q443E_Q445R (B3GTD7 entry or part of it Q443E/Q445R): as the sequence (B3GTD7 entry or part of it P331A) above, with A331P, Q443E, Q445R counted along it

BmGr9 [2] = molecular target: T1, BmGr9; assay: Intrinsic tryptophan fluorescence of detergent-solubilized purified BmGr9; type: binding
BmGr9 D99N = assay: GCaMP calcium flux assay, BmGr9 D99N; type: cell-based, Bombyx mori
BmGr9 Y190A = assay: GCaMP calcium flux assay, BmGr9 Y190A; type: cell-based, Bombyx mori
BmGr9 Q443E_Q445A = BmGr9 Q443E_Q445A (Bombyx mori, UniProt B3GTD7, Q443E/Q445A); assay: GCaMP calcium flux assay, BmGr9 Q443E_Q445A; type: cell-based
Sequence of BmGr9 Q443E_Q445A (B3GTD7 entry or part of it Q443E/Q445A): as the sequence (B3GTD7 entry or part of it P331A) above, with A331P, Q443E, Q445A counted along it

[3] = test system: HEK293 cells transfected with GCaMP only; assay: Cell-based GCaMP calcium flux assay, GCaMP-only control cells
BmGr9 Q445K = assay: GCaMP calcium flux assay, BmGr9 Q445K; type: cell-based, Bombyx mori
BmGr9 F444A = assay: GCaMP calcium flux assay, BmGr9 F444A; type: cell-based, Bombyx mori
BmGr9 W354F = assay: GCaMP calcium flux assay, BmGr9 W354F; type: cell-based, Bombyx mori
BmGr9 F189A = assay: GCaMP calcium flux assay, BmGr9 F189A; type: cell-based, Bombyx mori
BmGr9 T330A = assay: GCaMP calcium flux assay, BmGr9 T330A; type: cell-based, Bombyx mori

Sequence of BmGr9 T330S (B3GTD7 entry or part of it T330S): as the sequence (B3GTD7 entry or part of it P331A) above, with T330S, A331P counted along it

O=C(CO)[C@@H](O)[C@H](O)[C@H](O)CO [D-fructose]
EC50 (BmGr9 T330S): ~100 mM | Hill Slope (BmGr9 T330S; T330S): ~3.03 | EC50 (BmGr9 P331A): 5.5 mM | Hill Slope (BmGr9 P331A; P331A, 95% CI in parentheses): 1.43 (0.87 to 2.39) | activation by D-fructose (Fmax, Hill slope, EC50 fit) (BmGr9 Q443N): no activity | activation by D-fructose (Fmax, Hill slope, EC50 fit) (BmGr9 F333Y): no activity | EC50 (BmGr9 Q443E): 1.32 mM | apparent affinity relative to wild-type (BmGr9 Q443E; Gln443 to Glu): increased apparent affinity | Hill Slope (BmGr9 Q443E; Q443E): ~2.57 | Fluorescence change relative to wild-type BmGr9 (BmGr9 Q443E; Q443E, 100 mM D-fructose): more active than wild-type BmGr9 | activation by D-fructose (Fmax, Hill slope, EC50 fit) (BmGr9 Q445R): no activity | F max (BmGr9 H358Q): ~0.14 | Hill Slope (BmGr9 H358Q): ~1.43 | EC50 (BmGr9 F189Y): ~0.1 mM | Hill Slope (BmGr9 F189Y; F189Y, 95% CI in parentheses): 1.05 (0.44 to 2.15) | EC50 (BmGr9 Q443E_Q445K): 5.1 mM | Hill Slope (BmGr9 Q443E_Q445K; Q443E_Q445K, 95% CI in parentheses): 2.28 (1.51 to 3.62) | activation by D-fructose (Fmax, Hill slope, EC50 fit) (BmGr9 F333L): no activity | Activation of BmGr9 (change in fluorescence) by sweet compound (BmGr9 [1]; 100 mM sweet compound, HEK293 cells with BmGr9 plus GCaMP vs GCaMP only): elicited a strong response; also recorded: significantly different activity | EC50 (BmGr9 [1]; EC50, WT BmGr9, 95% CI in parentheses): 8.71 mM | Hill coefficient (BmGr9 [1]; Fig. 1b dose-response, n = 8, 95% CI in parentheses): 2.3 (1.3–4.6) | Hill Slope (BmGr9 [1]; WT BmGr9, 95% CI in parentheses): 1.94 (1.48 to 2.58) | EC50 (BmGr9 [1]; half-maximal activation concentration (EC50), Fig. 1b dose-response, HEK293 cells with BmGr9 and GCaMP6s, n = 8, 95% CI in parentheses): 9 mM and 8.2 mM | activation by D-fructose (Fmax, Hill slope, EC50 fit) (BmGr9 R86A): no activity | EC50 (BmGr9 Q351N): ~8 mM | Hill Slope (BmGr9 Q351N; Q351N): ~0.71 | EC50 (BmGr9 Y332F): 2.6 mM | apparent affinity relative to wild-type (BmGr9 Y332F; Tyr332 to Phe): slightly increases the apparent affinity | Hill Slope (BmGr9 Y332F; Y332F): ~2.36 | activation by D-fructose (Fmax, Hill slope, EC50 fit) (BmGr9 Q443A): no activity | Hill Slope (BmGr9 H358A): ~1.06 | activation by D-fructose (Fmax, Hill slope, EC50 fit) (BmGr9 W193F): no activity | Hill Slope (BmGr9 Q443D_Q445R): 0.31 (0.13 to 1.13) | activation by D-fructose (Fmax, Hill slope, EC50 fit) (BmGr9 D99A): no activity | activation by D-fructose (Fmax, Hill slope, EC50 fit) (BmGr9 I440A): no activity | F max (BmGr9 D165N): ~0.10 | activation by D-fructose (printed in Hill Slope column) (BmGr9 D165N): no activity | activation by D-fructose (Fmax, Hill slope, EC50 fit) (BmGr9 Y332Q): no activity | activation by D-fructose (Fmax, Hill slope, EC50 fit) (BmGr9 Y332L): no activity | EC50 (BmGr9 T330V): ~98 mM | Hill Slope (BmGr9 T330V; T330V): ~6.22 | F max (BmGr9 D165E): ~0.12 | activation by D-fructose (printed in Hill Slope column) (BmGr9 D165E): no activity | EC50 (BmGr9 Q445N): 20.3 mM | Hill Slope (BmGr9 Q445N; Q445N, 95% CI in parentheses): 1.49 (0.79 to 2.76) | EC50 (BmGr9 Q443D_Q445K): ~18 mM | Hill Slope (BmGr9 Q443D_Q445K; Q443D_Q445K, 95% CI in parentheses): 1.18 (0.24 to 2.87) | EC50 (BmGr9 R86K): 10.4 mM | Hill Slope (BmGr9 R86K; R86K): ~2.45 | EC50 (BmGr9 Q443D): 10 mM | Hill Slope (BmGr9 Q443D; Q443D, 95% CI in parentheses): 1.52 (0.94 to 2.57) | EC50 (BmGr9 Q351A): 3.9 mM | Hill Slope (BmGr9 Q351A; Q351A, 95% CI in parentheses): 1.89 (0.60 to 5.26) | EC50 (BmGr9 Y332A): 8.3 mM | Hill Slope (BmGr9 Y332A; Y332A, 95% CI in parentheses): 0.99 (0.37 to 2.17) | activation by D-fructose (Fmax, Hill slope, EC50 fit) (BmGr9 Q351E): no activity | activation by D-fructose (Fmax, Hill slope, EC50 fit) (BmGr9 D165A): no activity | Hill Slope (BmGr9 Y190F): 0.98 (0.56 to 2.07) | activation by D-fructose (Fmax, Hill slope, EC50 fit) (BmGr9 F333A): no activity | EC50 (BmGr9 Q445E): 15.3 mM | Hill Slope (BmGr9 Q445E; Q445E, 95% CI in parentheses): 1.56 (0.68 to 3.75) | EC50 (BmGr9 Q445A): 2.01 mM | Hill Slope (BmGr9 Q445A; Q445A): ~3.78 | Fluorescence change relative to wild-type BmGr9 (BmGr9 Q445A; Q445A, 100 mM D-fructose): more active than wild-type BmGr9 | EC50 (BmGr9 Q443E_Q445R): 4.07 mM | Hill Slope (BmGr9 Q443E_Q445R; Q443E_Q445R, 95% CI in parentheses): 2.02 (1.27 to 3.33) | Kd (BmGr9 [2]; KD (apparent affinity, tryptophan fluorescence), purified BmGr9 in digitonin, n = 4, 95% CI in parentheses): 16 mM and 15.8 mM | Trp fluorescence emission maximum (BmGr9 [2]; saturating D-fructose, maximum near 330 nm without sugar): 324 nm | activation by D-fructose (Fmax, Hill slope, EC50 fit) (BmGr9 D99N): no activity | activation by D-fructose (Fmax, Hill slope, EC50 fit) (BmGr9 Y190A): no activity | EC50 (BmGr9 Q443E_Q445A): 1.53 mM | Hill Slope (BmGr9 Q443E_Q445A; Q443E_Q445A, 95% CI in parentheses): 1.58 (0.69 to 6.42) | Hill Slope [3]: ~2.37 | F max ([3]; ~ = CI not determined): ~0.20 | activation by D-fructose (Fmax, Hill slope, EC50 fit) (BmGr9 Q445K): no activity | activation by D-fructose (Fmax, Hill slope, EC50 fit) (BmGr9 F444A): no activity | activation by D-fructose (Fmax, Hill slope, EC50 fit) (BmGr9 W354F): no activity | activation by D-fructose (Fmax, Hill slope, EC50 fit) (BmGr9 F189A): no activity | activation by D-fructose (Fmax, Hill slope, EC50 fit) (BmGr9 T330A): no activity
